Measured values: ChEMBL document CHEMBL5223080, “Discovery of Pyrrole-imidazole Polyamides as PD-L1 Expression Inhibitors and Their Anticancer Activity via Immune and Nonimmune Pathways” (J Med Chem, 2021)
Active and inactive are the calls of the source. No cut-off for these calls is given here.

Key:
[1] = Binding affinity to DNA STAT3 binding site of PD-L1 promoter region (unknown origin) assessed as disappearance of band of wild-type double stranded DNA-STAT3 protein complex at > 8 uM by competitive electrophoretic mobility shift assay
MDA-MB-231 [2] = assay: Induction of apoptosis in human MDA-MB-231 cells co-cultured with human Jurkat T cells at 8 uM relative to control; type: functional
DNA [3] = assay: Binding affinity to wild type 28 nucleotide double stranded DNA (unknown origin) in PD-L1 gene promotor region at 1:1 compound to DNA ratio incubated for 24 hrs by Circular Dichroism assay; type: nucleic-acid assay
Jurkat = assay: Cytotoxicity against human Jurkat cells at 8 uM incubated for 36 hrs by standard CCK-8 assay; type: toxicity, cell-based
HCC827 [4] = assay: Inhibition of PD-L1 protein expression in IFNgamma-induced human HCC827 cells measured for 36 hrs by Western blot analysis; type: functional, cell-based; conditions: dose 1.25-10 µM
Homo sapiens [5] = species: Homo sapiens; assay: Binding affinity to 5'-biotin-double stranded DNA (unknown origin) assessed as saturation of the compound-DNA complex at 350 to 500 nM by surface plasmon resonance; conditions: dose 350-500 nM
MDA-MB-231 [6] = assay: Inhibition of PD-L1 protein expression in IFNgamma-induced human MDA-MB-231 cells measured for 36 hrs by Western blot analysis; type: functional, cell-based; conditions: dose 1.25-10 µM
[7] = (§1) Induction of T-cell mediated cell killing in human MDA-MB-231 cells co-cultured with PMA-activated Jurkat T cells assessed as IL-2 production at 8 uM by ELISA relative to control; type: functional
MDA-MB-231 [8] = assay: Inhibition of PD-L1 mRNA expression in IFNgamma-induced human MDA-MB-231 cells measured for 36 hrs by qRT-PCR analysis; type: functional, cell-based; conditions: dose 1.25-10 µM
HCC827 [9] = assay: Cytotoxicity against human HCC827 cells incubated for 36 hrs by standard CCK-8 assay; type: functional, cell-based; conditions: for IC50: HCC827, 36 h; for Activity: dose 2-32 µM
HCC827 [10] = assay: Induction of apoptosis in human HCC827 cells co-cultured with human Jurkat T cells at 8 uM relative to control; type: functional
DNA [11] = assay: Binding affinity to wild type double stranded DNA (unknown origin) at 1:1 compound to DNA ratio incubated for 24 hrs at 340 nm by Circular Dichroism assay; type: nucleic-acid assay
[12] = Binding affinity to human single stranded DNA (unknown origin) by electrophoretic mobility shift assay
MDA-MB-231 [13] = assay: Cytotoxicity against human MDA-MB-231 cells incubated for 36 hrs by standard CCK-8 assay; type: functional, cell-based; conditions: for IC50: MDA-MB-231, 36 h; for Activity: dose 2-32 µM
MDA-MB-231 [14] = assay: Antimigratory activity in human MDA-MB-231 cells assessed as inhibition rate at 0.5 to 1 uM measured after 48 hrs by Wound healing assay relative to control; type: functional; parameters: scale not given: the % may be the effect or the level left; conditions: dose 0.5-1 µM
HCC827 [15] = assay: Antitumour activity against human HCC827 cells assessed as measuring interleukin-2 levels by ELISA; type: functional
dsDNA [16] = assay: Binding affinity to human 5'-biotin-double stranded DNA assessed as association rate constant by surface plasmon resonance; type: nucleic-acid assay
dsDNA [17] = assay: Binding affinity to human 5'-biotin-double stranded DNA assessed as dissociation rate constant by surface plasmon resonance; type: nucleic-acid assay
dsDNA [18] = assay: Binding affinity to human wild-type double stranded DNA assessed as thermal stability of compound-DNA complex by measuring change in melting temperature at stoichiometry ratio 1:1 by UV melting assay; type: nucleic-acid assay
dsDNA [19] = assay: Binding affinity to human mutant double stranded DNA assessed as thermal stability of compound-DNA complex by measuring melting change in temperature at stoichiometry ratio 1:4 by UV melting assay; type: nucleic-acid assay
[20] = (§2) Induction of T-cell mediated cell killing in human HCC827 cells co-cultured with PMA-activated Jurkat T cells assessed as IL-2 production at 8 uM by ELISA relative to control; type: functional
DNA [21] = assay: Binding affinity to wild-type double stranded DNA (unknown origin) by assessed as decrease in compound-DNA complex at >=8 uM by competitive electrophoretic mobility shift assay; type: nucleic-acid assay
DNA [22] = assay: Binding affinity to 5'-biotin-double stranded DNA (unknown origin) assessed as interaction with DNA to achieve steady state at 20 nM; type: nucleic-acid assay
HCC827 [23] = assay: Antimigratory activity in human HCC827 cells assessed as inhibition rate at 0.5 to 1 uM measured after 48 hrs by Wound healing assay relative to control; type: functional; parameters: scale not given: the % may be the effect or the level left; conditions: dose 0.5-1 µM
MDA-MB-231 [24] = assay: Antimigratory activity in human MDA-MB-231 cells assessed as inhibition rate at 2 uM measured after 48 hrs by Wound healing assay relative to control; type: functional; parameters: scale not given: the % may be the effect or the level left
dsDNA [25] = assay: Binding affinity to human mutant double stranded DNA assessed as thermal stability of compound-DNA complex by measuring melting temperature change in at stoichiometry ratio 1:0.5 by UV melting assay; type: nucleic-acid assay
MDA-MB-231 [26] = assay: Antitumour activity against human MDA-MB-231 cells assessed as measuring interleukin-2 levels by ELISA; type: functional
dsDNA [27] = assay: Binding affinity to human 5'-biotin-double stranded DNA assessed as dissociation equilibrium constant by surface plasmon resonance; type: nucleic-acid assay
MRC5 = assay: Cytotoxicity against human MRC5 cells at 32 uM by standard CCK-8 assay; type: toxicity, cell-based; conditions: mrc5, 32 µM
dsDNA [28] = assay: Binding affinity to human wild-type double stranded DNA assessed as thermal stability of compound-DNA complex by measuring change in melting temperature at stoichiometry ratio 1:0.5 by UV melting assay; type: nucleic-acid assay
dsDNA [29] = assay: Binding affinity to human mutant double stranded DNA assessed as thermal stability of compound-DNA complex by measuring change in melting temperature at stoichiometry ratio 1:1 by UV melting assay; type: nucleic-acid assay
DNA [30] = assay: Binding affinity to wild type double stranded DNA (unknown origin) incubated for 24 hrs by Circular Dichroism assay; type: nucleic-acid assay
HCC827 [31] = assay: Inhibition of PD-L1 mRNA expression in IFNgamma-induced human HCC827 cells measured for 36 hrs by qRT-PCR analysis; type: functional, cell-based; conditions: dose 1.25-10 µM
[32] = (§3) Induction of T-cell mediated cytotoxicity against human MDA-MB-231 cells co-cultured with Jurkat cells assessed as apoptotic cells at 8 uM incubated for 36 hrs by standard CCK-8 assay relative to control; type: functional
dsDNA [33] = assay: Binding affinity to human wild-type double stranded DNA assessed as thermal stability of compound-DNA complex by measuring change in melting temperature at stoichiometry ratio 1:4 by UV melting assay; type: nucleic-acid assay
[34] = (§4) Induction of T-cell mediated cytotoxicity against human HCC827 cells co-cultured with Jurkat cells assessed as apoptotic cells at 8 uM incubated for 36 hrs by standard CCK-8 assay relative to control; type: functional
HCC827 [35] = assay: Antimigratory activity in human HCC827 cells assessed as inhibition rate at 2 uM measured after 48 hrs by Wound healing assay relative to control; type: functional; parameters: scale not given: the % may be the effect or the level left
MDA-MB-231 [36] = assay: as §1; type: functional
HCC827 [37] = assay: as §2; type: functional
Homo sapiens [38] = species: Homo sapiens; assay: Binding affinity to DNA STAT3 binding site of PD-L1 promoter region assessed as effect on binding of STAT3 protein to STAT3 binding site of PD-L1 promoter region by competitive electrophoretic mobility shift assay
MDA-MB-231 [39] = assay: as §3; type: functional
HCC827 [40] = assay: as §4; type: functional
[41] = Binding affinity to DNA STAT3 binding site of PD-L1 promoter region (unknown origin) by electrophoretic mobility shift assay

Structure (SMILES): CC(=O)Nc1cc(C(=O)Nc2cc(C(=O)Nc3cc(C(=O)Nc4cn(C)c(C(=O)Nc5cn(C)c(C(=O)NCCC(=O)Nc6cn(C)c(C(=O)Nc7cc(C(=O)Nc8cc(C(=O)NCCCC(=O)Nc9cc(C(=O)Nc%10cc(C(=O)Nc%11cc(C(=O)NCCC(=O)Nc%12cc(C(=O)Nc%13cc(C(=O)Nc%14cn(C)c(C(=O)Nc%15cc(C(=O)Nc%16cc(C(=O)NCCC(=O)NCCCN(C)C)n(C)c%16)n(C)c%15)n%14)n(C)c%13)n(C)c%12)n(C)c%11)n(C)c%10)n(C)c9)n(C)c8)n(C)c7)n6)n5)n4)n(C)c3)n(C)c2)n(C)c1.Cl
- Activity [1]: Active
- Activity (MDA-MB-231 [2]): 27.76%
- Activity (DNA [3]): Active
- Activity (Jurkat): Non-Toxic
- inhibition (HCC827 [4]): Dose-Dependent Effect
- Activity (Homo sapiens [5]): Active
- inhibition (MDA-MB-231 [6]): Dose-Dependent Effect
- Activity [7]: 33%
- inhibition (MDA-MB-231 [8]): Dose-Dependent Effect
- IC50 (HCC827 [9]): 23.2 µM
- Activity (HCC827 [9]): Dose-Dependent Effect
- Activity (HCC827 [10]): 23.4%
- Activity (DNA [11]): Active
- Activity [12]: inactive
- IC50 (MDA-MB-231 [13]): 21.7 µM
- Activity (MDA-MB-231 [13]): Dose-Dependent Effect
- Activity (MDA-MB-231 [14]): 50%
- Activity (HCC827 [15]): 28.2 pg/mL
- Ka (dsDNA [16]): 1.28 10^6/M/s
- Kd (dsDNA [17]): 1.06 10^-2/s
- ΔTm (dsDNA [18]): 8.2 °C
- ΔTm (dsDNA [19]): 0.6 °C
- Activity [20]: 31.41%
- Activity (DNA [21]): Active
- Activity (DNA [22]): Active
- Activity (HCC827 [23]): 50%
- Activity (MDA-MB-231 [24]): >70%
- ΔTm (dsDNA [25]): 0.2 °C
- Activity (MDA-MB-231 [26]): 48.06 pg/mL
- Kd (dsDNA [27]): 0.00828 µM
- Activity (MRC5): Non-Toxic
- ΔTm (dsDNA [28]): 2.7 °C
- ΔTm (dsDNA [29]): 0.3 °C
- Activity (DNA [30]): Active
- inhibition (HCC827 [31]): Dose-Dependent Effect
- Activity [32]: 50.73%
- ΔTm (dsDNA [33]): 8.6 °C
- Activity [34]: 48%
- Activity (HCC827 [35]): >70%

Structure (SMILES): CC(=O)Nc1cc(C(=O)Nc2cc(C(=O)Nc3cc(C(=O)Nc4cn(C)c(C(=O)NCCC(=O)Nc5cn(C)c(C(=O)NCCCC(=O)Nc6cc(C(=O)Nc7cc(C(=O)NCCC(=O)Nc8cn(C)c(C(=O)Nc9cn(C)c(C(=O)Nc%10cc(C(=O)NCCC(=O)NCCCN(C)C)n(C)c%10)n9)n8)n(C)c7)n(C)c6)n5)n4)n(C)c3)n(C)c2)n(C)c1.Cl
- Activity (Jurkat): Non-Toxic
- inhibition (HCC827 [4]): inactive
- inhibition (MDA-MB-231 [6]): inactive
- Activity (MDA-MB-231 [36]): inactive
- IC50 (HCC827 [9]): > 200 µM
- Activity (HCC827 [9]): inactive
- Activity [12]: inactive
- IC50 (MDA-MB-231 [13]): > 200 µM
- Activity (MDA-MB-231 [13]): inactive
- Activity (HCC827 [15]): inactive
- ΔTm (dsDNA [18]): 0.4 °C
- Activity (HCC827 [37]): inactive
- Activity (Homo sapiens [38]): inactive
- Activity (MDA-MB-231 [26]): inactive
- Activity (MRC5): Non-Toxic
- ΔTm (dsDNA [28]): 0.2 °C
- Activity (MDA-MB-231 [39]): inactive
- ΔTm (dsDNA [33]): 0.7 °C
- Activity (HCC827 [40]): inactive
- Activity [41]: inactive
